Test results as given in patent US10335400B2, “Treatment of tauopathies with mGluR5 antagonists” (priority 2014, dated 2019).

Key:
PP2A = PP2A activity (phosphatase ELISA) and PP2Ac protein level in BMAA-treated mouse mixed primary neuronal cultures; type: cell-based; settings: BMAA 100 μM to 1 mM, 3-48 h
Experimental: Mouse hippocampal neuronal cultures were prepared from d 18 embryos as previously described (1). Briefly, C57BL/6 pregnant female mice from Charles River Laboratories were killed by cervical dislocation. All studies were performed in accordance with the recommendations in the Guide for the Care and Use of Laboratory Animals of the National Institutes of Health (2). The protocol was approved by Institutional Animal Care and Use Committee of the New York Institute for Basic Research in Developmental Disabilities. All surgeries were performed under anesthesia, and all efforts were made to minimize suffering. Embryos were removed and placed in cold Hibernate A (BrainBits, LLC), and all the following steps were performed in ice-cold Hibernate A, under a stereoscopic (dissection) microscope placed in a laminar flow hood. Fetal brains were removed carefully, and forebrains were separated. The hippocampus, including the cortex surrounding the area of the hippocampus, was dissected and cut into small pieces using microsurgical scissors. […]
PP2A activity was assayed with homogenate of rat brain slices using the phosphatase ELISA described previously (5). […] Finally 75 μL of 3,3′,5,5′-Tetramethylbenzidine substrate reagent (Sigma) was added, and the colorimetric development was measured using a microtiter plate reader at a wavelength of 650 nm. […]

tau = assay: Tau phosphorylation (Western blots, immunofluorescence) in mouse hippocampal primary neurons; type: cell-based
Experimental: Mouse hippocampal neuronal cultures were prepared from d 18 embryos as previously described (1). Briefly, C57BL/6 pregnant female mice from Charles River Laboratories were killed by cervical dislocation. All studies were performed in accordance with the recommendations in the Guide for the Care and Use of Laboratory Animals of the National Institutes of Health (2). The protocol was approved by Institutional Animal Care and Use Committee of the New York Institute for Basic Research in Developmental Disabilities. All surgeries were performed under anesthesia, and all efforts were made to minimize suffering. Embryos were removed and placed in cold Hibernate A (BrainBits, LLC), and all the following steps were performed in ice-cold Hibernate A, under a stereoscopic (dissection) microscope placed in a laminar flow hood. Fetal brains were removed carefully, and forebrains were separated. The hippocampus, including the cortex surrounding the area of the hippocampus, was dissected and cut into small pieces using microsurgical scissors. The cut tissue was transferred with number 5 forceps to 15-mL tubes containing 0.1% trypsin in Versene (Invitrogen Life Technologies) and was incubated for 15 min at 37° C. followed by inactivation with 10% (vol/vol) FBS in Neurobasal complete medium (Neurobasal Medium supplemented with 2×B-27, 0.30% glutamine, 10% FBS, and penicillin/streptomycin, 0.1 mg/mL and 0.1 U/mL respectively). After 3 d, the cells were grown with Neurobasal medium supplemented with only 2×B-27. This procedure typically yields cultures that contain 70-75% neurons and […] supporting cells (3). The cultures were maintained at 37° C. in a humidified atmosphere containing 5% CO2 for 8 or 9 d before experimentation. Every 72 h, the medium was replaced with fresh medium. All medium components were purchased from Invitrogen. The neuronal transfection was performed using Lipofectamine LTX and Plus reagent at 5 d in vitro according to the manufacturer's instructions (Invitrogen). The cells were processed for immunofluorescent staining 3 d after transfection.
Protein was fractionated by 10% SDS/PAGE, transferred to PVDF membrane, and then blocked with 5% skim milk for 1 h at room temperature. The membrane was probed with anti-IPP2A (5G6, 1:1, 500) (7), anti-I2P2A (10E7, 1:1, 600) (7), anti-tau ˜92e; 1:5,000) (8), anti-tau (R134d; 1:5 000) (9), anti-tau pSer^262/^356 (12E8; 1:500) (10, anti-tau pSer^199, anti-tau pThr^205, anti-tau pThr^212, and pSer^396 (1:1,000) (Biosource), anti-GAPDH (1:2,000) (Santa Cruz Biotechnology), anti-PP2Ac (1:10 000) (BD Transduction Lab), anti pY^307-PP2A and anti-DML^309-PP2A (1:1,000) (Millipore), anti-GSK-3(α/β), anti-pS^9-GSK-3 β, anti-ERK1/2, anti-pT^202/Y^204-ERK1/2, anti-MEK1/2, anti-p9^17/221-MEK1/2, anti-CAMKII, anti-pT^286-CAMKII, anti-p70 S6 kinase, anti-pT^389-p70 S6 kinase, anti-SAPK/JNK, and anti-pT^183/Y^185-SAPK/JNK (1:1,000) (Cell Signaling Technology). The membrane then was incubated with HRP-conjugated secondary antibody (Jackson ImmunoResearch). The protein bands were detected with the enhanced chemiluminescence reagents (Thermo Scientific). Band intensity was measured by Multi-Gauge V3 software (Fuji Photo Film).
Primary hippocampal neuronal cultures grown on four-chamber glass slides were fixed in cold 4% (wt/vol) paraformaldehyde for 15 min and permeabilized in 0.1% Triton X-100 for 15 min followed by incubation in 5% goat serum to block the nonspecific staining for 1 h. The cells then were probed with 12E8 (1:200) overnight at 4° C. Alexa-488-conjugated anti-mouse secondary antibody (1:500) (Jackson Laboratory) was used for fluorescent labeling. The cells on slides were rinsed with PBS, mounted with Fluorogel (Electron Microscopy Sciences) and examined under laser confocal microscope (Nikon Eclipse 90i). […]

[1] = BMAA 1 mM vs controls, Western blots, P<0.01
[2] = BMAA 1 mM vs controls, Western blots, P<0.05

CNC[C@H](N)C(=O)O [BMAA, β-N-methylamino-L-alanine]
PP2A activity (PP2A): significantly decreased
hyperphosphorylation of tau at Ser396 (tau; BMAA 1 mM vs controls, Western blots): not at Ser^396
hyperphosphorylation of tau at Ser262/356 (12E8 site) (tau; [1]): significantly increased
hyperphosphorylation of tau at Thr205 (tau; [1]): significantly increased
hyperphosphorylation of tau at Ser199 (tau; [2]): significantly increased
hyperphosphorylation of tau at Thr212 (tau; [2]): significantly increased
expression of tau phosphorylated at Ser262/356 (tau; immunohistofluorescent analysis, 12E8 staining, BMAA-treated primary neurons): increased
